≈ marks a conversion by molar mass, not a printed value. Where two headings read alike, the source gives them in different places.
Key:
[1] = Microsomal stability assay, human liver microsomes (HLM); assay type: in vitro ADME; details: 0.5 mg/mL protein, 1 μM substrate
Experimental: (§1) Microsomal Stability Assay
(§2) The stability studies were performed manually using the substrate depletion approach. Test compounds were incubated at 37° C. with cryo-preserved mouse or human liver microsomes (Corning) at a protein concentration of 0.5 mg·mL^−1 and a final substrate concentration of 1 μM. Aliquots were removed from the incubation at defined timepoints and the reaction was terminated by adding to ice-cold organic solvent. Compound concentrations were determined by LC-MS/MS analysis. The natural log of the percentage of compound remaining was plotted against each time point and the slope determined. The half-life (t1/2) and CLint were calculated using Equations 1 and 2, respectively.
(§3) HLM (human liver microsomes) and MLM (mouse liver microsomes) stability assay results are described in Tables 1-2.

[2] = Plasma protein binding assay, human plasma (hPPB); assay type: in vitro ADME; details: 5 μM
Experimental: (§4) Plasma Protein Binding Assay The plasma protein binding was determined by the equilibrium dialysis method. A known concentration of compound (5 μM) in previously frozen human or mouse plasma (Sera Labs) was dialysed against phosphate buffer using a RED device (Life Technologies) for 4 hours at 37° C. The concentration of compound in the protein containing (PC) and protein free (PF) sides of the dialysis membrane were determined by LC-MS/MS and the % free compound was determined by equation 4. Data analysis was performed using Excel (Microsoft, USA). % free=(1−((PC−PF)/PC))×100 (4) hPPB (human plasma protein binding) and mPPB (mouse plasma protein binding) results are described in Tables 1-2.

[3] = Microsomal stability assay, mouse liver microsomes (MLM); assay type: in vitro ADME; details: 0.5 mg/mL protein, 1 μM substrate
Experimental: as §1, §2, §3

[4] = test system: RAF dimers in HCT-116 cells; assay: HCT-116 AlphaLISA SureFire pERK1/2 cellular assay (dimer); assay type: cell-based; details: Homo sapiens, HCT-116, 1 hr
Experimental: (§5) The human HCT-116 colorectal carcinoma cell line (ATCC CCL-247) endogenously expresses the KRAS^G13D mutation, which leads to constitutive activation of the MAP kinase pathway and phosphorylation of ERK. […] Assay read outs took place 2 or 24 hours after dosing with compounds. On the first day, HCT-116 cells were harvested, resuspended in growth medium (McCoys5A with Glutamax (Life Technologies 36600021) and 10% heat-inactivated fetal bovine serum (Sigma F9665)), and counted. Cells were plated in 100 μl per well in each well of a 96-well culture dish (Sigma CLS3598) to a final density of 30,000 (2 hr read) or 15,000 (24 hr read) cells per well and incubated over night at 37° C. and 5% CO2. On day 2, the growth medium was exchanged for dosing medium (McCoys5A with Glutamax (Life Technologies 36600021) and 1% heat-inactivated fetal bovine serum (Sigma F9665)) and the cells were dosed with compounds to produce a 10-point dose response, where the top concentration was 1 μM and subsequent concentrations were at 1/3 log dilution intervals. A matched DMSO control was included. The cells were subsequently incubated for either 2 or 24 hours at 37° C. and 5% CO2. After incubation, media was removed and the cells were incubated with lysis buffer containing phosphatase inhibitors for 15 minutes at room temperature. Cell lysates were transferred to a 12 area 96 well white Optiplate™ (Perkin Elmer 6005569) and incubated with anti-mouse IgG acceptor beads, a biotinylated anti-ERK1/2 rabbit antibody recognizing both phosphorylated and non-phosphorylated ERK1/2, a mouse antibody targeted to the Thr202/Tyr204 epitope and recognizing phosphorylated ERK proteins only, and streptavidin-coated donor beads. The biotinylated antibody binds to the streptavidin-coated donor beads and the phopsho-ERK1/2 antibody binds to the acceptor beads. Plates were read on an EnVision reader (Perkin Elmer) and excitation of the beads at 680 nm with a laser induced the release of singlet oxygen molecules from the donor beads that trigger energy transfer to the acceptor beads in close proximity, producing a signal that can be measured at 570 nm. Both antibodies bound to phosphorylated ERK proteins, bringing the donor and acceptor beads into close proximity. All data were analyzed using the Dotmatics or GraphPad Prism software packages. Inhibition of ERK phosphorylation was assessed by determination of the absolute IC50 value, which is defined as the concentration of compound required to decrease the level of phosphorylated ERK proteins by 50% when compared to DMSO control.
HCT-116 AlphaLISA SureFire pERK1/2 Cellular Assay (Dimer)
The human HCT-116 colorectal carcinoma cell line (ATCC CCL-247) endogenously expresses the KRAS^G13D mutation, which leads to constitutive activation of the MAP kinase pathway and phosphorylation of ERK. First generation RAF inhibitors can promote RAF dimer formation in KRAS mutant tumours leading to a paradoxical activation of the pathway. To determine whether compounds can circumvent this problem and inhibit RAF dimers in HCT-116 cells, they were tested using AlphaLISA® SureFire® technology (Perkin Elmer p-ERK1/2 p-T202/Y204 assay kit ALSU-PERK-A10K). The main procedure is essentially the same as described above, with the following adjustments: Cells were seeded with the seeding density of 30,000 cells per well. On the second day (the day of dosing) no medium change was performed and the cells were dosed with 1 μM of Encorafenib for 1 hour (at 37° C. and 5% CO2) to induce RAF dimers and promote paradoxical dimer-dependent pERK signalling. After incubation, the cells were washed, 100 μl fresh growth medium was added, and cells were dosed with compounds of interest to produce a 10-point dose response, where the top concentration was 10 μM and subsequent concentrations are at 1/2 log dilution intervals. Cells were incubated for another hour at 37° C. and 5% CO2 before lysis and processing with the pERK AlphaLISA® SureFire® kit as described above. […]

[5] = test system: BRAF monomers in A375 cells; assay: A375 AlphaLISA SureFire pERK1/2 cellular assay (monomer); assay type: cell-based; details: Homo sapiens, A-375; A375 cells, 1 hr; read-out: pERK A375 (1 hr) pIC50 (converted)
Experimental: as §5
A375 AlphaLISA SureFire pERK1/2 Cellular Assay (Monomer)
The human A375 melanoma cell line (ATCC CRL-1619) endogenously expresses the BRAF^V600E mutation, which leads to constitutive activation of the MAP kinase pathway and phosphorylation of ERK. In BRAF^V600E mutant tumours, BRAF signals as a monomer to activate ERK. To determine whether compounds can inhibit BRAF monomers in A375 cells, they were tested using AlphaLISA® SureFire® technology (Perkin Elmer p-ERK1/2 p-T202/Y204 assay kit ALSU-PERK-A10K). The main procedure is essentially the same as described above for HCT-116 cells, with the following adjustments: The A375 cells were cultivated and dosed in Dulbecco's modified Eagle's medium containing 4.5 g/L D-glucose (Sigma D6546), 10% heat-inactivated fetal bovine serum (Sigma F9665), and 1% Sodium-Pyruvate (Sigma S8636), and seeded with a seeding density of 30,000 cells per well. No media exchange was performed before dosing with compounds to produce a 10-point dose response, where the top concentration was 10 μM and subsequent concentrations were at 1/2 log dilution intervals. Subsequently, the cells were incubated for 1 hour at 37° C. and 5% CO2 before lysis.

[6] = Plasma protein binding assay, mouse plasma (mPPB); assay type: in vitro ADME; details: 5 μM
Experimental: as §4

[7] = test system: constitutive ERK phosphorylation in HCT-116 cells; assay: HCT-116 AlphaLISA SureFire pERK1/2 cellular assay; assay type: cell-based, human; details: Homo sapiens, HCT-116; HCT116 cells, 2 hr, Abs; read-out: pERK HCT116 (2 hr) Abs pIC50 (converted)
Experimental: as §5, with “HCT-116” for “The human HCT-116”, “AlphaLISA SureFire pERK1/2 Cellular Assay […]” for “colorectal carcinoma cell line (ATCC CCL-247) endogenously expresses the KRAS^G13D mutation, which leads to constitutive activation of the MAP kinase pathway and phosphorylation of ERK.”, “Plates were read on an EnVision reader (Perkin Elmer) and excitation of the beads at 680 nm with a laser induced the release of singlet oxygen molecules from the donor beads that trigger energy transfer to the acceptor beads in close proximity, producing a signal that can be measured at 570 nm.” left out

FeSSIF solubility assay = assay type: physicochemical; details: fed state simulated intestinal fluid (FeSSIF), thermodynamic from solid, pH 5 acetate buffer, 37° C., read-out: FESSIF Sol
Experimental: FeSSIF Solubility Assay 1 mL of fed state simulated intestinal fluid (FeSSIF), prepared using FaSSIF/FeSSIF/FaSSGF powder (Biorelevant.com) and pH 5 acetate buffer, was added to 1.0 mg of compound and then incubated for 24 h (Bioshake iQ, 650 rpm, 37° C.). Following filtration under positive pressure, the concentration of compound in solution was assessed by LC-UV in comparison to the response for a calibration standard of known concentration (250 μM). FeSSIF solubility results are described in Tables 1-2.

[8] = equilibrium dialysis 4 hours 37° C.
[9] = HCT116 cells pre-dosed with 1 μM Encorafenib, read-out: pERK HCT116 dimer (1 hr) pIC50 (converted)
[10] = equilibrium dialysis 4 hours at 37° C.

SMILES | IC50 [7] [nM] | solubility thermodynamic at 24 h (FeSSIF solubility assay) [µg/mL] | microsomal CLint at 1 μM [1] [µL/min/mg] | hPPB (% free) [2, 8] [% free] | microsomal CLint at 1 μM [3] [µL/min/mg] | IC50 [5] [µM] | mPPB (% free) [6, 8] [% free] | also measured
O=C1CCc2c(Oc3ccc4c(c3)CC(c3nc(-c5ccccc5F)c[nH]3)CO4)ccnc2N1 (stereo not drawn) [Compound 3, 5-[3-[4-(2-fluorophenyl)-1H-imidazol-2-yl]chroman-6-yl]oxy-3,4-dihydro-1H-1,8-naphthyridin-2-one] |  |  | 30.3 | 0.2 | 34.4 | 0.0437 | 0.5 | IC50 [4, 9]: 112 nM
COc1ncc(-c2c[nH]c(C3COc4ccc(Oc5ccnc6c5CCC(=O)N6)cc4C3)n2)c(OC)n1 (stereo not drawn) [Compound 18, 5-[3-[4-(2,4-dimethoxypyrimidin-5-yl)-1H-imidazol-2-yl]chroman-6-yl]oxy-3,4-dihydro-1H-1,8-naphthyridin-2-one] |  |  | 71.1 | 1.2 | 32.9 | 10 | 2.5 | IC50 [4, 9]: 3630 nM
CN1CCN(Cc2cc(C(F)(F)F)c3nc(C4COc5ccc(Oc6ccnc7c6CCC(=O)N7)cc5C4)[nH]c3c2)CC1 (stereo not drawn) [Compound 28] |  |  | 68.1 | 0.1 | 31.1 | 1.82 | 0.5 | 
Cn1cc(-c2c[nH]c(C3COc4ccc(Oc5ccnc6c5CCC(=O)N6)cc4C3)n2)cn1 (stereo not drawn) [Compound 108, 5-[3-[4-(1-methylpyrazol-4-yl)-1H-imidazol-2-yl]chroman-6-yl]oxy-3,4-dihydro-1H-1,8-naphthyridin-2-one] | > 1000 |  |  |  |  | 6.31 |  | IC50 ([4]; HCT116 cells, dimer, read-out: pERK HCT116 dimer (1 hr) plC50 (converted)): 389 nM
c1ccc(-c2c[nH]c(C3COc4ccc(Oc5ccnc(Nc6nccs6)c5)cc4C3)n2)cc1 (stereo not drawn) [Compound 141] | > 1000 |  |  |  |  |  |  | microsomal CLint at 1 μM ([1]; 37° C.): 1 µL/min/mg; hPPB (% free) [2, 10]: <0.1 % free; microsomal CLint at 1 μM ([3]; 37° C.): 21.8 µL/min/mg; mPPB (% free) [6, 10]: 0.5 % free

Continued, in another order:

IC50 [7] [nM] | solubility thermodynamic at 24 h (FeSSIF solubility assay) [µg/mL] | SMILES | microsomal CLint at 1 μM [1] [µL/min/mg] | hPPB (% free) [2, 8] [% free] | microsomal CLint at 1 μM [3] [µL/min/mg] | IC50 [5] [µM] | mPPB (% free) [6, 8] [% free] | also measured
> 1000 | < 1.1 | Cc1nn(C)cc1-c1c[nH]c(C2COc3ccc(Oc4ccnc5c4CCC(=O)N5)cc3C2)n1 (stereo not drawn) [Compound 109, 5-[3-[4-(1,3-dimethylpyrazol-4-yl)-1H-imidazol-2-yl]chroman-6-yl]oxy-3,4-dihydro-1H-1,8-naphthyridin-2-one] |  |  |  |  |  | 
> 1000 | 16.7 (≈ 33.9 µM) | Cn1cnc2cc(-c3c[nH]c(C4COc5ccc(Oc6ccnc7c6CCC(=O)N7)cc5C4)n3)ccc21 (stereo not drawn) [Compound 129, 5-[3-[4-(1-methylbenzimidazol-5-yl)-1H-imidazol-2-yl]chroman-6-yl]oxy-3,4-dihydro-1H-1,8-naphthyridin-2-one] |  |  |  |  |  | 
> 1000 | 12.2 (≈ 24.8 µM) | Cn1ncc2cc(-c3c[nH]c(C4COc5ccc(Oc6ccnc7c6CCC(=O)N7)cc5C4)n3)ccc21 (stereo not drawn) [Compound 131, 5-[3-[4-(1-methylindazol-5-yl)-1H-imidazol-2-yl]chroman-6-yl]oxy-3,4-dihydro-1H-1,8-naphthyridin-2-one] |  |  |  |  |  | 
741 |  | O=C(NC1CC1)c1cc(Oc2ccc3c(c2)CC(c2nc(-c4ccccc4)c[nH]2)CO3)ccn1 (stereo not drawn) [Compound 158, N-cyclopropyl-4-[3-(4-phenyl-1H-imidazol-2-yl)chroman-6-yl]oxy-pyridine-2-carboxamide] |  |  |  |  |  | microsomal CLint at 1 μM ([1]; 37° C.): 21.3 µL/min/mg; hPPB (% free) [2, 10]: 0.3 % free; microsomal CLint at 1 μM ([3]; 37° C.): 62.8 µL/min/mg; mPPB (% free) [6, 10]: 0.2 % free
